Test results reported in patent US11253589B2, “Modulation of the immune response” (priority 2007, dated 2022).

Tested on: IgG serum antibodies to myelin antigens
Test: Antigen microarray of serum antibody response to myelin
Format: in vivo, mouse
Details: TCDD-treated mice that did not develop EAE, FDR < 0.05
Protocol: The antigens listed in Table 1 were spotted onto Epoxy slides (TeleChem, Sunnyvale, Calif., USA) as described (Quintana et al., Proc Natl Acad Sci USA 101 Suppl 2, 14615-21 (2004)). Antigens were spotted in replicates of 6, the microarrays were blocked for 1 h at 37° C. with 1% bovine serum albumin, and incubated for 2 hours at 37° C. with a 1:100 dilution of the test serum in blocking buffer. The arrays were then washed and incubated for 45 min at 37° C. with goat anti-mouse IgG Cy3-conjugated detection antibodies (Jackson ImmunoResearch Labs, West Grove, Pa., USA). The arrays were scanned with a ScanArray 4000X scanner (GSI Luminomics, Billerica, Mass., USA). Antigen reactivity was defined by the mean intensity of binding to the replicates of that antigen on the microarray. Raw data were normalized and analyzed using the GeneSpring software (Silicon Genetics, Redwood City, Calif., USA) with the non-parametric Wilcoxon-Mann-Whitney test, using the Benjamini and Hochberg method with a false discovery rate (FDR) of 0.05 to determine significance. The samples were clustered using a pairwise average linkage algorithm based on Spearman's rank correlation as a distance measure. […]

**Q.** With `Clc1cc2c(cc1Cl)Oc1cc(Cl)c(Cl)cc1O2` [TCDD, 2,3,7,8 tetrachlorodibenzo-p-dioxin] as the compound, how does the “IgG serum antibodies to myelin antigens” value read?
**A.** significant decrease in IgG serum antibodies to 97 myelin antigens
